Patent US11370774B2, “Substituted benzofuran, benzopyrrole, benzothiophene, and structurally related complement inhibitors” (BioCryst Pharmaceuticals, Inc., priority 2018, dated 2022)

What follows are molecules tested against Factor D (Homo sapiens (Human), UniProt P00746) (assay: Factor D esterolytic assay (Z-Lys-SBzl substrate, DTNB, 405 nm)). Settings: Z-Lys-SBzl 1.29 mM, pH 7.5, 10% DMSO, tested a minimum of three times, read-out: Measured Ki (IC50) Value for Compounds: IC50.
Assay type: biochemical
How it was run: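 Thioester hydrolysis (Z-Lys-SBzl, 1.29 mM) by human Factor D ([…]) detected through DTNB color at 405 nm over 600 sec, minus 690 nm background. Buffer: 100 mM HEPES pH 7.5, 500 mM NaCl, 10% DMSO; optional room-temperature preincubation before substrate. IC50 derived from percent rate inhibition; at least three runs.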

Sequence of Factor D (P00746 26-253): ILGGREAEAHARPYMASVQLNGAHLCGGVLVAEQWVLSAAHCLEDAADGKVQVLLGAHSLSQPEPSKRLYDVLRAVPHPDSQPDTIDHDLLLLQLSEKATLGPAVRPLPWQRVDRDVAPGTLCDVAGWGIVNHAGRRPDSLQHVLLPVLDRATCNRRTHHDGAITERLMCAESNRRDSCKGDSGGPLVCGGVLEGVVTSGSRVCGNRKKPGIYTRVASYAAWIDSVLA

IC50, < 1000 nM:
COCc1cc2cc(COc3cc(C(N)=O)ccc3CC(=O)O)cc(-c3cccc(CN)c3F)c2o1 [Compound 439c, 2-(2-((7-(3-(aminomethyl)-2-fluorophenyl)-2-(methoxymethyl)benzofuran-5-yl)methoxy)-4-carbamoylphenyl)acetic acid]
COCc1cc2cc(COc3cc(CN)ccc3CC(=O)O)cc(-c3cccc(CN)c3F)c2o1 [Compound 440c, 2-(4-(aminomethyl)-2-((7-(3-(aminomethyl)-2-fluorophenyl)-2-(methoxymethyl)benzofuran-5-yl)methoxy)phenyl)acetic acid]
COCc1cc2cc(COc3cc(NC(C)=O)ccc3CC(=O)O)cc(-c3cccc(CN)c3F)c2o1 [Compound 441c, 2-(4-acetamido-2-((7-(3-(aminomethyl)-2-fluorophenyl)-2-(methoxymethyl)benzofuran-5-yl)methoxy)phenyl)acetic acid]
Cc1ccc(CC(=O)O)c(OCc2cc(-c3cccc(CN)c3)c3sccc3c2)c1 [Compound 443i, 2-(2-((7-(3-(aminomethyl)phenyl)benzo[b]thiophen-5-yl)methoxy)-4-methylphenyl)acetic acid]
COCc1cc2cc(COc3cc(C)ccc3CC(=O)O)cc(-c3cccc(CN)c3F)c2o1 [Compound 444c, 2-(2-((7-(3-(aminomethyl)-2-fluorophenyl)-2-(methoxymethyl)benzofuran-5-yl)methoxy)-4-methylphenyl)acetic acid]
COCc1cc2cc(COc3cc(CN)ccc3CC(=O)O)cc(-c3cccc(CN)c3)c2o1 [Compound 445c, 2-(4-(aminomethyl)-2-((7-(3-(aminomethyl)phenyl)-2-(methoxymethyl)benzofuran-5-yl)methoxy)phenyl)acetic acid]
NCc1cccc(-c2cc(COc3cc(CN)ccc3CC(=O)O)cc3cc(CO)oc23)c1 [Compound 446c, 2-(4-(aminomethyl)-2-((7-(3-(aminomethyl)phenyl)-2-(hydroxymethyl)benzofuran-5-yl)methoxy)phenyl)acetic acid]
COc1ccc(CC(=O)O)c(OCc2cc(-c3ccnc(CN)c3)c3ccn(C(C)C)c3c2)c1 [Compound 447d, 2-(2-((4-(2-(aminomethyl)pyridin-4-yl)-1-isopropyl-1H-indol-6-yl)methoxy)-4-methoxyphenyl)acetic acid]
COc1ccc(CC(=O)O)c(OCc2cc(-c3ccnc(CN)c3F)c3ccn(C(C)C)c3c2)c1 [Compound 448c, 2-(2-((4-(2-(aminomethyl)-3-fluoropyridin-4-yl)-1-isopropyl-1H-indol-6-yl)methoxy)-4-methoxyphenyl)acetic acid]
CC(C)n1ccc2c(-c3cccc(CN)c3)cc(COc3cc(F)ccc3CC(=O)O)cc21 [Compound 449c, 2-(2-((4-(3-(aminomethyl)phenyl)-1-isopropyl-1H-indol-6-yl)methoxy)-4-fluorophenyl)acetic acid]
CC(C)n1ccc2c(-c3cccc(CN)c3F)cc(COc3cc(F)ccc3CC(=O)O)cc21 [Compound 450b, 2-(2-((4-(3-(aminomethyl)-2-fluorophenyl)-1-isopropyl-1H-indol-6-yl)methoxy)-4-fluorophenyl)acetic acid]
NCc1ccc(CC(=O)O)c(OCc2cc(-c3ccnc(CN)c3)c3occc3c2)c1 [Compound 451c, 2-(4-(aminomethyl)-2-((7-(2-(aminomethyl)pyridin-4-yl)benzofuran-5-yl)methoxy)phenyl)acetic acid]
COCc1cc2cc(COc3cc(C)ccc3CC(=O)O)cc(-c3ccnc(CN)c3F)c2o1 [Compound 453d, 2-(2-((7-(2-(aminomethyl)-3-fluoropyridin-4-yl)-2-(methoxymethyl)benzofuran-5-yl)methoxy)-4-methylphenyl)acetic acid]
COCc1cc2cc(COc3cc(C)ccc3CC(=O)O)cc(-c3ccnc(CN)c3)c2o1 [Compound 454d, 2-(2-((7-(2-(aminomethyl)pyridin-4-yl)-2-(methoxymethyl)benzofuran-5-yl)methoxy)-4-methylphenyl)acetic acid]
NCc1ccc(CC(=O)O)c(OCc2cc(-c3cccc(CN)c3F)c3occc3c2)c1 [Compound 456c, 2-(4-(aminomethyl)-2-((7-(3-(aminomethyl)-2-fluorophenyl)benzofuran-5-yl)methoxy)phenyl)acetic acid]
NCc1cccc(-c2cc(COc3ccccc3CC(=O)O)cc3cc(COc4ccccc4)oc23)c1 [Compound 457c, 2-(2-((7-(3-(aminomethyl)phenyl)-2-(phenoxymethyl)benzofuran-5-yl)methoxy)phenyl)acetic acid]
COCc1cc2cc(COc3cc(C#N)ccc3CC(=O)O)cc(-c3cccc(CN)c3)c2o1 [Compound 458b, 2-(2-((7-(3-(aminomethyl)phenyl)-2-(methoxymethyl)benzofuran-5-yl)methoxy)-4-cyanophenyl)acetic acid]
Cc1oc2c(-c3cccc(CN)c3)cc(COc3ccccc3CC(=O)O)cc2c1-c1ccoc1 [Compound 459h, 2-(2-((7-(3-(aminomethyl)phenyl)-3-(furan-3-yl)-2-methylbenzofuran-5-yl)methoxy)phenyl)acetic acid]
Cc1cc2c(-c3ccnc(CN)c3)cc(COc3ccccc3CC(=O)O)cc2o1 [Compound 461c, 2-(2-((4-(2-(aminomethyl)pyridin-4-yl)-2-methylbenzofuran-6-yl)methoxy)phenyl)acetic acid]
COCc1cc2cc(COc3ccc(F)cc3CC(=O)O)cc(-c3cccc(CN)c3)c2o1 [Compound 462c, 2-(2-((7-(3-(aminomethyl)phenyl)-2-(methoxymethyl)benzofuran-5-yl)methoxy)-5-fluorophenyl)acetic acid]
COCc1cc2cc(COc3ccc(F)cc3CC(=O)O)cc(-c3cccc(CN)c3F)c2o1 [Compound 463b, 2-(2-((7-(3-(aminomethyl)-2-fluorophenyl)-2-(methoxymethyl)benzofuran-5-yl)methoxy)-5-fluorophenyl)acetic acid]
COc1ccc(CC(=O)O)c(OCc2cc(-c3ccnc(CN)c3F)c3occc3c2)c1 [Compound 464d, 2-(2-((7-(2-(aminomethyl)-3-fluoropyridin-4-yl)benzofuran-5-yl)methoxy)-4-methoxyphenyl)acetic acid]
COc1ccc(CC(=O)O)c(OCc2cc(-c3cccc(CN)c3F)c3occc3c2)c1 [Compound 465b, 2-(2-((7-(3-(aminomethyl)-2-fluorophenyl)benzofuran-5-yl)methoxy)-4-methoxyphenyl)acetic acid]
COCc1cc2cc(COc3cc(OC)ccc3CC(=O)O)cc(-c3cccc(CN)c3)c2o1 [Compound 466c, 2-(2-((7-(3-(aminomethyl)phenyl)-2-(methoxymethyl)benzofuran-5-yl)methoxy)-4-methoxyphenyl)acetic acid]
COCc1cc2cc(COc3cc(OC)ccc3CC(=O)O)cc(-c3cccc(CN)c3F)c2o1 [Compound 467b, 2-(2-((7-(3-(aminomethyl)-2-fluorophenyl)-2-(methoxymethyl)benzofuran-5-yl)methoxy)-4-methoxyphenyl)acetic acid]
